Source: ChEMBL document CHEMBL1130658 (Bioorg Med Chem Lett, 1998)

Key:
MAP kinase p38 = MAP kinase p38 (Homo sapiens, UniProt O15264+Q15759+Q16539+P53778); test: Compound was tested for inhibition of p38 MAP kinase; format: protein assay
Mus musculus [1] = species: Mus musculus; test: Effective dose required to determine the oral activity in the mouse LPS-induced TNF alpha assay; format: functional
CYP2D6 = CYP2D6 (Homo sapiens, UniProt P10635); test: Percent inhibition of human hepatic cytochrome P450 2D6 at 10 uM; format: ADME
CYP2D6, sequence (P10635 whole entry): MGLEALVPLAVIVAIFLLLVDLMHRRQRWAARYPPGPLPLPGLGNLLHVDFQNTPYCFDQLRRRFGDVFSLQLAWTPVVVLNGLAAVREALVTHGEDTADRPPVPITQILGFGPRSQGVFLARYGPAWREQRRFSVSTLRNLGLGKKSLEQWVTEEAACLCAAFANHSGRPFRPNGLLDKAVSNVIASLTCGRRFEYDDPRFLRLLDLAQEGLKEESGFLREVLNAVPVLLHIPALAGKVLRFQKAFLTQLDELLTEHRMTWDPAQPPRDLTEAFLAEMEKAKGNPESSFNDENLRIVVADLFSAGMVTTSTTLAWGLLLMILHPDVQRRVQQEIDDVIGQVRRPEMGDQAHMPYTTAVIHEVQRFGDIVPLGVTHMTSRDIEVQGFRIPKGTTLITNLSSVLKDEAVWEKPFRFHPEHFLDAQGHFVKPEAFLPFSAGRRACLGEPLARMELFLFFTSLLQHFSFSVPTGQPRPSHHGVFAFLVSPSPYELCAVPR

Mus musculus [2] = test: Effective dose required to determine the oral activity in the mouse LPS-induced TNF alpha assay at a dose of 50 mg/kg; format: functional
Mus musculus [3] = test: Effective dose required to determine the oral activity in the mouse LPS-induced TNF alpha assay at a dose of 50 mg/Kg; format: functional

SMILES	IC50 (MAP kinase p38) [µM]	ED50 (Mus musculus [1]) [mg/kg]	inhibition at 10 µM (CYP2D6) [%]	inhibition in vivo at 50 mg/kg (Mus musculus [2]) [%]	inhibition in vivo at 50 mg/kg (Mus musculus [3]) [%]
Cc1cc(-c2c(-c3ccc(F)cc3)ncn2CCCN2CCOCC2)nc(N)n1	> 17				
Cc1cc(-c2c(-c3ccc(F)cc3)ncn2CCCN2CCOCC2)cc(C)n1	> 17				
COc1nccc(-c2c(-c3ccc(F)cc3)ncn2CCCN2CCOCC2)n1		14	7		
CNc1nccc(-c2c(-c3ccc(F)cc3)ncn2CCCN2CCOCC2)n1	1.9	19	11		
C[S+]([O-])c1nccc(-c2c(-c3ccc(F)cc3)ncn2CCCN2CCOCC2)n1 (stereo not drawn)	2.2			37	
CSc1nc(N)cc(-c2c(-c3ccc(F)cc3)ncn2CCCN2CCOCC2)n1	> 17				
COc1cc(-c2c(-c3ccc(F)cc3)ncn2CCCN2CCOCC2)ncn1	> 17				
CN(C)c1nccc(-c2c(-c3ccc(F)cc3)ncn2CCCN2CCOCC2)n1	3.6				
CSc1nccc(-c2c(-c3ccc(F)cc3)ncn2CCCN2CCOCC2)n1	2	43	47		
Fc1ccc(-c2ncn(CCCN3CCOCC3)c2-c2ccncc2)cc1 [SB-210313]		42	86		
Cc1cc(-c2c(-c3ccc(F)cc3)ncn2CCCN2CCOCC2)ccn1	2.1		51	37	
CC(=O)Nc1cc(-c2c(-c3ccc(F)cc3)ncn2CCCN2CCOCC2)ncn1	3.5			21	
Fc1ccc(-c2ncn(CCCN3CCOCC3)c2-c2ccncn2)cc1		12	34		
CC(=O)Nc1nccc(-c2c(-c3ccc(F)cc3)ncn2CCCN2CCOCC2)n1	0.46			12	
Nc1cc(-c2c(-c3ccc(F)cc3)ncn2CCCN2CCOCC2)ncn1	> 17				
Cc1nccc(-c2c(-c3ccc(F)cc3)ncn2CCCN2CCOCC2)n1	1.3		19		65
Oc1nccc(-c2c(-c3ccc(F)cc3)ncn2CCCN2CCOCC2)n1	5.5			33	
Nc1nccc(-c2c(-c3ccc(F)cc3)ncn2CCCN2CCOCC2)n1			47		
